From US9040727B2, “Histone deacetylase inhibitor of benzamides and use thereof” (Shanghai Institute of Pharmaceutical Industry, priority 2011, dated 2015)
Read-outs that look alike come from different tables or passages of the source.

How the values were obtained:
[1] = Preliminary pharmacokinetic experiment; conditions: in vivo, rat
hERG potassium channel = hERG potassium channel (Homo sapiens (Human), UniProt Q12809); assay: Effects on hERG potassium channel; assay type: cell-based
HDAC1 = HDAC1 (Homo sapiens (Human), UniProt Q13547); assay: In vitro inhibitory activity towards HDAC1 (HDAC Inhibitor Drug Screening Kit); assay type: biochemical
Experimental: (1) The compounds to be tested were each individually prepared as 10 μM and 1 μM solutions and their inhibitory activities towards HDAC1 at these concentrations were tested.
Each dilution sample was placed in two wells and the enzyme inhibition IC50 of the compound was tested.

[2] = system: Hut78 T lymphocytic leukemia cells; assay: In vitro anti-proliferative effect, CCK-8 method; assay type: cell-based; conditions: Homo sapiens, HuT78
Experimental: (§1) The inhibitory activities of the compounds towards Hut78 T lymphocytic leukemia cells, Jurkat E6-1 human T-cell lymphoma, A549 human lung cancer cells, K562 human chronic myelogenous leukemia cells, Hep3B2.1-7 human liver cancer cells, MDA-MB-435s human breast cancer cells, Colo320 human rectal cancer cell line, and PC-3 human prostate cancer were determined. The inhibition percentages as represented by IC50 values were obtained through CCK-8 method.

[3] = system: Jurkat E6-1 human T-cell lymphoma; assay: In vitro anti-proliferative effect, CCK-8 method; assay type: cell-based; conditions: Homo sapiens
Experimental: as §1

[4] = system: PC-3 human prostate cancer; assay: In vitro anti-proliferative effect, CCK-8 method; assay type: cell-based; conditions: Homo sapiens
Experimental: as §1

[5] = system: MDA-MB-435s human breast cancer cells; assay: In vitro anti-proliferative effect, CCK-8 method; assay type: cell-based; conditions: Homo sapiens
Experimental: as §1

[6] = system: K562 human chronic myelogenous leukemia cells; assay: In vitro anti-proliferative effect, CCK-8 method; assay type: cell-based
Experimental: as §1

[7] = system: Hep3B2.1-7 human liver cancer cells; assay: In vitro anti-proliferative effect, CCK-8 method; assay type: cell-based; conditions: Homo sapiens, Hep3B
Experimental: as §1

[8] = system: A549 human lung cancer cells; assay: In vitro anti-proliferative effect, CCK-8 method; assay type: cell-based; conditions: Homo sapiens
Experimental: as §1

Chain of HDAC1 (Q13547 whole entry): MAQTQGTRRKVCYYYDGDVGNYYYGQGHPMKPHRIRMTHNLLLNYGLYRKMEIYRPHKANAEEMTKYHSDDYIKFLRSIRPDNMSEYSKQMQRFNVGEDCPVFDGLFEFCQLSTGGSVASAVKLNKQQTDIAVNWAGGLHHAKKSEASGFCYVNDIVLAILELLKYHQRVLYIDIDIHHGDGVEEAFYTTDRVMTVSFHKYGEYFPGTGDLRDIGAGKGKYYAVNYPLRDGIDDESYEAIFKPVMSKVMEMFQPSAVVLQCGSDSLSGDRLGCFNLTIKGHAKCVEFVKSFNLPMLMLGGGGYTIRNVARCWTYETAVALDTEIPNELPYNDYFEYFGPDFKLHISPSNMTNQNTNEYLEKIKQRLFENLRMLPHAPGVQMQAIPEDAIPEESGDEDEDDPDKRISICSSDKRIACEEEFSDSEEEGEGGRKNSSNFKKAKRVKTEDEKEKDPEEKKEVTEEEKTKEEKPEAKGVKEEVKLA
Chain of hERG potassium channel (Q12809 whole entry): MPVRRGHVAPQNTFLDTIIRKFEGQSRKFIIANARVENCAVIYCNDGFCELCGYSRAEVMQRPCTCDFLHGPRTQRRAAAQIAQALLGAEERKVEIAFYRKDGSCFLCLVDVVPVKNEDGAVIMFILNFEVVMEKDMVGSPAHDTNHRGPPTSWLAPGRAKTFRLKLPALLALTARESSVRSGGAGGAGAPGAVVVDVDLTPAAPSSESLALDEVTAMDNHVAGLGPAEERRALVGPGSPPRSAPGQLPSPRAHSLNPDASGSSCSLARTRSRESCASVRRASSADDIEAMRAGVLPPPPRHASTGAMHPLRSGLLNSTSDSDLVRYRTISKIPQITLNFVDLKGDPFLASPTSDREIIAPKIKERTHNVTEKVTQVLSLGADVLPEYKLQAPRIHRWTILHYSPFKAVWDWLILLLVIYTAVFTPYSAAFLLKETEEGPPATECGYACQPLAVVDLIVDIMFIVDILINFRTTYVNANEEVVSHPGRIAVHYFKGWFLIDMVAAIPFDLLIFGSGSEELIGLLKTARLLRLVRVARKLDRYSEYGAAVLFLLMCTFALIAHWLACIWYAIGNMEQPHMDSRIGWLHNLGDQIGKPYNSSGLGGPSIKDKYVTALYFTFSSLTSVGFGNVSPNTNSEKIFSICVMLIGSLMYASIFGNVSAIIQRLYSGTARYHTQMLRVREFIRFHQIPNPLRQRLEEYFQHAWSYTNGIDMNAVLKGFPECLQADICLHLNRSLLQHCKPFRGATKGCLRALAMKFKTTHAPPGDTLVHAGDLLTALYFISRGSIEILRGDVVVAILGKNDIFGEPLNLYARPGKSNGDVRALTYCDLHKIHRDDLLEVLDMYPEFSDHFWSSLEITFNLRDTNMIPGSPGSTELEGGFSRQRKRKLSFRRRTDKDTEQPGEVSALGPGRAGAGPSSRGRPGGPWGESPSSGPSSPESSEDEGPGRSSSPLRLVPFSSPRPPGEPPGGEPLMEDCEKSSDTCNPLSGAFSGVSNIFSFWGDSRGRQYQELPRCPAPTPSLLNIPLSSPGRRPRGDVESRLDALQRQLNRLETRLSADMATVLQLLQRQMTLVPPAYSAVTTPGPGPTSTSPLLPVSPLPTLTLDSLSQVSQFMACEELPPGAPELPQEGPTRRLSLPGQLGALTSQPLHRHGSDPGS

half-life ([1]; iv, 2 mg/kg, i.v., read-out: Intravenous half-life (converted)): 0.95 h
bioavailability ([1]; oral): 28.8%
half-life ([1]; oral, read-out: Oral half-life (converted)): 6.37 h
inhibition at 1 µM (HDAC1; compound at 1 μM): 37.9%
inhibition at 10 µM (HDAC1; compound at 10 μM): 69.1%
IC50 [2]: 3.46 µM
IC50 [3]: 2.13 µM
IC50 [4]: 2.24 µM
IC50 [5]: 14.8 µM
IC50 [6]: 17.1 µM
IC50 [7]: 15.9 µM
IC50 [8]: 21.2 µM
Structure (SMILES): Nc1ccc(F)cc1NC(=O)c1ccc(CNC(=O)c2cc3ccccc3o2)cc1 [Compound V-9]
inhibition at 10 µM (hERG potassium channel; human, hERG potassium current, 10 μM, read-out: Maximum inhibition percentage at 10 μM): 19.9 ± 6.7%
IC50 (hERG potassium channel; read-out: Half inhibition concentration for the effect on hERG potassium current IC50): > 10 µM
inhibitory activity against HDAC1 compared with MS-275 (by IC50) (HDAC1; comparison with MS-275): better inhibitory activities against HDAC1 as compared with MS-275
